From the supplement of paper PMC10477900

Key:
HCT116 [1] = conditions: 72 h
Method: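 HCT116 control and MTA1-KO (CRISPR) HCT116 cells were seeded in 384-well plates (800 cells/well), treated 16 h later with 237 metabolism-related anticancer drugs at five doses (10 uM, 2 uM, 400 nM, 80 nM, 16 nM) for 72 h, two replicates; viability by CCK8. Values are % inhibition of viability relative to untreated cells, plus fitted IC50.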

HCT116 [2] = assay: viability inhibition vs untreated; higher = more cytotoxic; conditions: 72 h

SMILES	IC50 (HCT116 [1]; genotype: MTA1-KO) [µM]	IC50 (HCT116 [1]; genotype: control) [µM]	viability inhibition (HCT116 [2]; genotype: MTA1-KO, 16 nM) [%]	viability inhibition (HCT116 [2]; genotype: MTA1-KO, 80 nM) [%]	viability inhibition (HCT116 [2]; genotype: MTA1-KO, 400 nM) [%]	viability inhibition (HCT116 [2]; genotype: MTA1-KO, 2000 nM) [%]	viability inhibition (HCT116 [2]; genotype: MTA1-KO, 10000 nM) [%]	viability inhibition (HCT116 [2]; genotype: control, 16 nM) [%]	viability inhibition (HCT116 [2]; genotype: control, 80 nM) [%]	viability inhibition (HCT116 [2]; genotype: control, 400 nM) [%]	viability inhibition (HCT116 [2]; genotype: control, 2000 nM) [%]	viability inhibition (HCT116 [2]; genotype: control, 10000 nM) [%]
CC(=O)O[C@H]1C[C@H](O[C@H]2[C@@H](O)C[C@H](O[C@H]3[C@@H](O)C[C@H](O[C@H]4CC[C@@]5(C)[C@H](CC[C@@H]6[C@@H]5C[C@@H](O)[C@]5(C)[C@@H](C7=CC(=O)OC7)CC[C@]65O)C4)O[C@@H]3C)O[C@@H]2C)O[C@H](C)[C@H]1O[C@@H]1O[C@H](CO)[C@@H](O)[C@H](O)[C@H]1O [Lanatoside C]	0.286	0.145	2.02	2.18	87.7	105	107	-11.4	12.6	88	99.5	101
Cc1c(NC(=O)c2cc(C(N)=O)nc3cc(F)ccc23)c(C(F)(F)F)nn1Cc1ccc(C#N)cc1 [BAY876]	< 0.016	< 0.016	50.2	73	82	90.4	110	72.8	89.8	97.7	103	102
CCC(C)(Oc1ccc(C2(c3ccc(OC(C)(CC)C(=O)O)cc3)CCCCC2)cc1)C(=O)O (stereo unspecified) [Clinofibrate]	> 10	> 10	12.9	5.15	19.9	28	51.7	-13.2	-10	-7.17	-15.8	0.951
Nc1cccc(S(=O)(=O)N2CCCN(S(=O)(=O)c3ccc4c(c3)OCCO4)CC2)c1 [DASA58]	6.95	> 10	-0.728	-19.4	-15.8	-12.1	75	-13.2	-25.9	-13.7	-17.4	-6.72
Clc1ccccc1C(c1ccccc1)(c1ccccc1)n1ccnc1 [Clotrimazole]	> 10	> 10	-16.8	-16.8	-15	-23.3	-4.67	0.201	-0.602	-4.37	-8.31	2.92
NS(=O)(=O)c1cc2c(cc1Cl)NC(C(Cl)Cl)NS2(=O)=O (stereo unspecified) [Trichlormethiazide]	> 10	> 10	-29.5	-30.5	-28.4	-24.3	-25.6	-19.9	-23.8	-25.7	-14.7	-2.52
O=C(/C=C/c1ccc2ccc(C(F)(F)F)cc2n1)c1ccncc1 [PFK158]	3.1	3.89	-5.2	-29.6	-31.5	-28.1	121	8.64	-5.17	1.7	-5.11	96.2
CCC(=O)Nc1cccc(Oc2nc(Nc3ccc(N4CCN(C)CC4)cc3OC)ncc2Cl)c1 [WZ4003]	> 10	> 10	-5.75	-20	-8	-5.19	8.72	8.56	-15.4	-4.38	-7.1	12.2
CC(=O)Nc1nnc(S(N)(=O)=O)s1 [Acetazolamide]	> 10	> 10	-8.41	-9.41	-15.4	-8.8	6.99	-4.74	-13.5	-4.54	-3.32	-0.433
COc1cc2c(cc1O)CC[C@@H]1[C@@H]2CC[C@]2(C)[C@@H](O)CC[C@@H]12 [2-Methoxyestradiol]	3.34	> 10	12.6	9.89	15.7	38.7	80.2	8.28	14.6	22.6	24.1	33.6
O=c1c2cc(O)c(O)cc2oc2cc(O)c([C@@H]3O[C@H](CO)[C@@H](O)[C@H](O)[C@H]3O)c(O)c12 [Mangiferin]	> 10	> 10	-12.5	-17.6	-11.2	-10.4	-14.8	-7.62	8.64	4.62	6.09	1.62
CN1CCN(C(=O)/C=C/c2ccc([N+](=O)[O-])o2)CC1	> 10	> 10	-10.2	-18.9	-24	-18.6	19.7	0.552	-3.92	-15.2	-0.064	11
CC1=C(/C=C/C(C)=C/C=C/C(C)=C/C(=O)O)C(C)(C)CCC1 [Tretinoin]	> 10	> 10	-24.6	-24.4	-23.5	-20.8	-24.5	-4.55	-1.65	-12.1	-9.98	-3.87
CC(C)c1ccc(C(=O)N=C(N)N)cc1S(C)(=O)=O [Cariporide]	> 10	> 10	-28.1	-33.2	-32	-35.2	-20.9	19.4	-4.81	-9.25	-4.56	22.7
O=C(Oc1cccc(F)c1OC(=O)c1cccc(O)c1)c1cccc(O)c1 [WZB117]	> 10	> 10	1.38	-12.9	-10.3	-1.16	12.7	-23.3	-8.87	-3.93	-25.9	-15
O=C(O)c1cccnc1Nc1cccc(C(F)(F)F)c1 [Niflumic acid]	> 10	> 10	-15.2	-17.4	-11.9	-15.8	-9.84	3.66	11.1	-0.91	-2.33	0.571
Nc1nonc1C(=Nc1ccc(F)c(Cl)c1)NO	> 10	> 10	11.1	13.3	16.9	23.6	36.3	10.4	19	-4.25	11	9.01
CC(=O)OCC(=O)[C@@]1(O)CC[C@H]2[C@@H]3CCC4=CC(=O)C=C[C@]4(C)[C@H]3[C@@H](O)C[C@@]21C [Prednisolone-21-acetate]	> 10	> 10	-12.5	-14	-3.35	-0.355	-5.46	-5.13	-7.24	-8.51	-7.3	-12.1
